Reference: patent publication US20100168421A1, “A NEW PEPTIDE DEFORMYLASE INHIBITOR COMPOUND AND MANUFACTURING PROCESS THEREOF” (priority 2007, published 2010)
Converted amounts (≈) assume the structure as drawn. Like-named read-outs stand apart in the source and are kept apart here.

Columns and labels:
Streptococcus pyogenes = assay: MIC microdilution, S. pyogenes; format: cell-based; conditions: microdilution, Mueller-Hinton Broth, 37° C., 24 hours, read-out: MIC Streptococcus pyogenes
Method: (§1) Minimum inhibitory concentrations (MICs) were determined using the microdilution method in 96-well format plates. Each of the compounds of Examples was dissolved in dimethyl sulfoxide to a concentration of 2 mg/mL and stored at 4° C. until used. They were diluted in Mueller-Hinton Broth (MHB) and used for MIC determination. The range of concentrations tested was […] final concentration using a two-fold dilution system. Plates were incubated at 37° C. and MIC were recorded after 24 hours of incubation for bacteria.
(§2) Linezolid and vancomycin were used as standard antibiotics, respectively.

PDF enzyme [1] = target: T1, PDF enzyme (Streptococcus pneumoniae serotype 4, UniProt Q9F2F0); assay: PDF/FDH coupled enzyme assay, Streptococcus Pneumoniae; format: biochemical; conditions: substrate fMAS, absorption at 340 nm
T1 sequence (Q9F2F0 1-203): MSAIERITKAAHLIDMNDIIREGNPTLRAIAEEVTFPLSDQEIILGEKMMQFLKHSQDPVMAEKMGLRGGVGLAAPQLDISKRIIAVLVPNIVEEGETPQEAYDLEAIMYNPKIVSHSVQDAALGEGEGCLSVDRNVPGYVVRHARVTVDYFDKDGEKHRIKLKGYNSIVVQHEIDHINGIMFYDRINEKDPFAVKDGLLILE

[2] = tested on: Vancomycin-resistant Enterococcus faecalis; assay: MIC microdilution, VR E. faecalis; format: cell-based; conditions: microdilution, Mueller-Hinton Broth, 37° C., 24 hours, read-out: MIC Vancomycin-resistant Enterococcus faecalis
Method: as §1, §2

PDF enzyme [3] = target: PDF enzyme (Escherichia coli, UniProt P0A6K3); assay: PDF/FDH coupled enzyme assay, E. coli; format: biochemical
Sequence of PDF enzyme (Escherichia coli, UniProt P0A6K3) (P0A6K3 whole entry): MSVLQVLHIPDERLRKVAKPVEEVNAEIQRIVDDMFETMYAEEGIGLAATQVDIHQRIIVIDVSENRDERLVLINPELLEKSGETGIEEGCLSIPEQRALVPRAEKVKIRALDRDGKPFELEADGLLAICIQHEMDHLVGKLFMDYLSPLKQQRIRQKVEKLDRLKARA
Method: Activities of PDF enzyme for E. coli and S. aureus were determined using PDF/FDH coupled assay. In this coupled assay, the formate released by PDF from its substrate formyl-Methionine-Alanine-Serine (fMAS) is oxidized by coupling enzyme formate dehydrogenase (FDH), reducing one molecule of NAD^+ to NADH, which is measured absorption at 340 nm.

[4] = tested on: Streptococcus Pneumoniae Pen NS; assay: MIC microdilution, S. Pneumoniae Pen NS; format: cell-based; conditions: microdilution, Mueller-Hinton Broth, 37° C., 24 hours, read-out: MIC Streptococcus Pneumoniae Pen NS
Method: as §1, §2

[5] = tested on: Streptococcus Pneumoniae Pen S; assay: MIC microdilution, S. Pneumoniae Pen S; format: cell-based; conditions: microdilution, Mueller-Hinton Broth, 37° C., 24 hours, read-out: MIC Streptococcus Pneumoniae Pen S
Method: as §1, §2

[6] = tested on: Vancomycin-resistant Enterococcus faecium; assay: MIC microdilution, VR E. faecium; format: cell-based; conditions: microdilution, Mueller-Hinton Broth, 37° C., 24 hours, read-out: MIC Vancomycin-resistant Enterococcus faecium
Method: as §1, §2

PDF enzyme [7] = target: PDF enzyme (Streptococcus pyogenes serotype M1, UniProt P68771); assay: PDF/FDH coupled enzyme assay, Streptococcus pyogenes; format: biochemical
Sequence of PDF enzyme (Streptococcus pyogenes serotype M1, UniProt P68771) (P68771 whole entry): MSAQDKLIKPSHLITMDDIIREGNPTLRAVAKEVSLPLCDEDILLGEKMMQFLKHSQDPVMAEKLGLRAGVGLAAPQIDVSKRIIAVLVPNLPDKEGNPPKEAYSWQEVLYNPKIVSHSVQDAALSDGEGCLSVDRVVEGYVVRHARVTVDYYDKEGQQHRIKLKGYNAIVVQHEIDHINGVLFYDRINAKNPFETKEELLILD

[8] = Acute toxicity study in mice; conditions: mouse, in vivo, po, 4000 mg/kg; ICR mice, orally, observed for 14 days
Method: The acute toxicity of the compounds of Example 5, 17 and 22 were tested using several groups of ICR mice each of 6 mice.

[9] = PDF/FDH coupled assay, substrate fMAS, absorption at 340 nm, read-out: IC50 Escherichia coli
[10] = PDF/FDH coupled assay, substrate fMAS, absorption at 340 nm, read-out: IC50 Streptococcus pyogenes

`Cc1ccc(CNC2CCN(C(=O)[C@@H](NC(=O)[C@H](CC3CCCC3)CN(O)C=O)C(C)(C)C)CC2)cc1` [Example 2, (R)-2-Cyclopentylmethyl-N-{(S)-2,2-dimethyl-1-[4-(4-methyl-benzylamino)-piperidine-1-carbonyl]-propyl}-3-(formyl-hydroxy-amino)-propionamide] gave an MIC (Streptococcus pyogenes) of 0.2 µg/mL (≈ 0.389 µM), an IC50 (PDF enzyme [1]) of 77 nM and an MIC [2] of 3.1 µg/mL (≈ 6.02 µM). For the same molecule, the IC50 (PDF enzyme [3]; [9]) was 132 nM, the MIC [4] was 0.4 µg/mL (≈ 0.777 µM) and the MIC [5] was 0.1 µg/mL (≈ 0.194 µM). It also gave an MIC [6] of 0.4 µg/mL (≈ 0.777 µM) and an IC50 (PDF enzyme [7]; [10]) of 86 nM.
Molecule `COc1ccc(CNC2CCN(C(=O)[C@@H](NC(=O)[C@H](CC3CCCC3)CN(O)C=O)C(C)(C)C)CC2)cc1` [Example 5, (R)-2-Cyclopentylmethyl-3-(formyl-hydroxy-amino)-N-{(S)-1-[4-(4-methoxy-benzylamino)-piperidine-1-carbonyl]-2,2-dimethyl-propyl}-propionamide] has an LD50 at 14 days [8] greater than 2000 mg/kg, an MIC (Streptococcus pyogenes) of 0.4 µg/mL (≈ 0.754 µM) and an MIC [2] of 6.3 µg/mL (≈ 11.9 µM). The MIC [4] was 0.8 µg/mL (≈ 1.51 µM), the MIC [5] was 0.2 µg/mL (≈ 0.377 µM) and the MIC [6] was 1.6 µg/mL (≈ 3.01 µM).
`CC(C)(C)[C@H](NC(=O)[C@H](CC1CCCC1)CN(O)C=O)C(=O)N1CCC(NCc2ccc(O)cc2)CC1` [Example 6, (R)-2-Cyclopentylmethyl-3-(formyl-hydroxy-amino)-N-{(S)-1-[4-(4-hydroxy-benzylamino)-piperidine-1-carbonyl]-2,2-dimethyl-formyl}-propionamide] gave an MIC (Streptococcus pyogenes) of 0.8 µg/mL (≈ 1.55 µM), an IC50 (PDF enzyme [1]) of 42 nM and an MIC [2] greater than 50 µg/mL. The IC50 (PDF enzyme [3]; [9]) was 102 nM, the MIC [4] was 3.1 µg/mL (≈ 6 µM) and the MIC [5] was 0.8 µg/mL (≈ 1.55 µM). It also gave an MIC [6] of 50 µg/mL (≈ 96.8 µM) and an IC50 (PDF enzyme [7]; [10]) of 84 nM.
Molecule `CC(C)(C)[C@H](NC(=O)[C@H](CC1CCCC1)CN(O)C=O)C(=O)N1CCC(NCc2ccc(O)c(O)c2)CC1` [Example 13, (R)-2-Cyclopentylmethyl-N-{(S)-1-[4-(3,4-dihydroxy-benzylamino)-piperidine-1-carbonyl]-2,2-dimethyl-propyl}-3-(formyl-hydroxy-amino)-propionamide] has an IC50 (PDF enzyme [1]) of 46 nM, an IC50 (PDF enzyme [3]) of 133 nM and an IC50 (PDF enzyme [7]) of 88 nM.
In the case of `CC(C)(C)[C@H](NC(=O)[C@H](CC1CCCC1)CN(O)C=O)C(=O)N1CCC(Nc2ccc(O)cc2)CC1` [Example 20, (R)-2-Cyclopentylmethyl-3-(formyl-hydroxy-amino)-N-{(S)-1-[4-(4-hydroxy-phenylamino)-piperidine-1-carbonyl]-2,2-dimethyl-formyl}-propionamide], the MIC (Streptococcus pyogenes) is reported as 1.6 µg/mL (≈ 3.18 µM), the IC50 (PDF enzyme [1]) is reported as 63 nM and the MIC [2] is reported as 25 µg/mL (≈ 49.7 µM). It also gave an IC50 (PDF enzyme [3]; [9]) of 102 nM, an MIC [4] of 3.1 µg/mL (≈ 6.17 µM) and an MIC [5] of 0.8 µg/mL (≈ 1.59 µM). For the same molecule, the MIC [6] was 25 µg/mL (≈ 49.7 µM) and the IC50 (PDF enzyme [7]; [10]) was 61 nM.
Work on `CC(C)(C)[C@H](NC(=O)[C@H](CC1CCCC1)CN(O)C=O)C(=O)N1CCC(NCc2ccco2)CC1` [Example 27, (R)-2-Cyclopentylmethyl-3-(formyl-hydroxy-amino)-N-((S)-1-{4-[(furan-2-ylmethyl)-amino]-piperidine-1-carbonyl}-2,2-dimethyl-propyl)-propionamide] yielded an IC50 (PDF enzyme [1]) of 42 nM, an IC50 (PDF enzyme [3]) of 117 nM and an IC50 (PDF enzyme [7]) of 63 nM.
Work on `COc1coc(CNC2CCN(C(=O)[C@@H](NC(=O)[C@H](CC3CCCC3)CN(O)C=O)C(C)(C)C)CC2)cc1=O` [Example 29, (R)-2-Cyclopentylmethyl-3-(formyl-hydroxy-amino)-N-((S)-1-{4-[(5-methoxy-4-oxo-4H-pyran-2-ylmethyl)-amino]-piperidine-1-carbonyl}-2,2-dimethyl-propyl)-propionamide] yielded an IC50 (PDF enzyme [1]) of 43 nM, an IC50 (PDF enzyme [3]) of 155 nM and an IC50 (PDF enzyme [7]) of 54 nM.
`CC(C)(C)[C@H](NC(=O)[C@H](CC1CCCC1)CN(O)C=O)C(=O)N1CCC(NCc2cc(=O)c(O)co2)CC1` [Example 30, (R)-2-Cyclopentylmethyl-3-(formyl-hydroxy-amino)-N-((S)-1-{4-[(5-hydroxy-4-oxo-4H-pyran-2-ylmethyl)-amino]-piperidin-1-carbonyl}-2,2-dimethyl-propyl)-propionamide] gave an IC50 (PDF enzyme [1]) of 50 nM, an IC50 (PDF enzyme [3]) of 160 nM and an IC50 (PDF enzyme [7]) of 62 nM.
